Results reported in PubChem BioAssay (NCI).
“And” between values parts separate entries of the source, which are not always exact repeats. Equal values may be shown once.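 Five compound concentrations were applied to cells in 96-well plates for 48 hours; endpoints were derived by simple linear interpolation of the resulting dose-response curve. At the GI50, growth is halved. Definition used: TGI = concentration required for complete inhibition of growth.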

Legend:
Experiment in all cases: NCI tumour cell line growth inhibition, 48 h
[1] = system: OVCAR-3 ovarian
[2] = system: SR leukemia
[3] = system: IGROV1 ovarian
[4] = system: HL-60(TB) leukemia
[5] = system: A549 NSCLC
[6] = system: UO-31 renal
[7] = system: SNB-75 CNS
[8] = system: HT29 colon

| SMILES | GI50 [1] | TGI [1] | GI50 [2] | TGI [2] | GI50 [3] | TGI [3] | GI50 [4] | TGI [4] | GI50 [5] | TGI [5] | GI50 [6] | TGI [6] | GI50 [7] | TGI [7] | GI50 [8] | TGI [8] |
| --- | --- | --- | --- | --- | --- | --- | --- | --- | --- | --- | --- | --- | --- | --- | --- | --- |
| O=C(/C=C\c1ccc2ccccc2n1)c1cc(Cl)ccc1O | 5.31 µM | 17.1 µM | 2.48 µM | 8.11 µM | 5.21 µM | 22.6 µM | 3.32 µM | 11.3 µM | 57.9 µM | > 100 µM | 4.33 µM | 17.8 µM | 6.58 µM | 21 µM | 4.2 µM | 31.5 µM |
| COc1ccc(-c2cc(-c3nnc(SCC(=O)Nc4ccc(C(C)=O)cc4)o3)c3ccccc3n2)cc1 | 62.6 µM | > 100 µM |  |  | 20.2 µM | > 100 µM | > 100 µM | > 100 µM | > 100 µM | > 100 µM | > 100 µM | > 100 µM | 3.65 µM | 22.6 µM | > 100 µM | > 100 µM |
| Cc1cc(C)c2c(N)c3cccc(C)c3nc2n1 | 2.57 µM | 5.46 µM | 0.703 µM | 3.94 µM | 3.17 µM | > 100 µM | 3.67 µM | 16.4 µM |  |  | 1.9 µM | 59.6 µM | 1.83 µM | 6.63 µM | 0.994 µM | 5.27 µM |
| NC(=O)NCCSC1CCCCC1O (stereo not given) |  | > 100 µM |  | > 100 µM |  | > 100 µM |  |  |  | > 100 µM |  | > 100 µM |  | > 100 µM |  | > 100 µM |
| COc1ccc(/C=C\c2cc(OC)c(OC)c(OC)c2)cc1OCC(=O)Nc1nc2ccc(OC(F)(F)F)cc2s1 | 3.37 µM | 11.3 µM | 3.55 µM | > 100 µM | 5.64 µM | > 100 µM |  |  | 6 µM | > 100 µM | 4.37 µM | > 100 µM | 1.56 µM | 7.68 µM | > 100 µM | > 100 µM |
| COc1cc(OC)cc(-c2cncn2-c2ccc(-c3nc4cc(OC)cc(OC)c4s3)cc2)c1 | 2.87 µM | > 100 µM | 3.3 µM | > 100 µM | 5.07 µM | > 100 µM |  |  |  |  |  |  | 3.28 µM | 17.9 µM |  |  |
| CCCCCCCCCCCCCCCCn1cc[n+](Cc2ccccc2)c1C | 0.178 µM and 0.175 µM | 0.947 µM and 0.49 µM |  |  | 1.09 µM | 2.29 µM | 0.0496 µM | 2.06 µM | 1.15 µM | 2.57 µM | 1.49 µM | 2.99 µM | 0.262 µM | 0.899 µM | 0.297 µM | 1.08 µM |
| COc1ccc(-n2c3c(c4c(CN(C)C)c(O)c(C)cc42)CCc2ccccc2C3=O)cc1 | 34.2 µM | 97.2 µM |  |  | 21 µM | 85.2 µM | 12.3 µM | 43.6 µM | 55.6 µM | > 100 µM | 45.9 µM | > 100 µM |  |  | > 100 µM | > 100 µM |
| COc1cc2c(cc1OC)-c1c(c3ccc([N+](=O)[O-])cc3c(=O)n1CCCN)C2=O | 8.42 µM | 18.4 µM | 0.0386 µM | 0.346 µM | 0.306 µM | 8.29 µM | 1.28 µM | 3.38 µM | 0.395 µM | 1.68 µM | 0.351 µM | 3.59 µM |  |  | 0.531 µM | 1.12 µM |
| CN1CCC(n2[nH]c(-c3ccccc3)c(Cc3ccccc3)c2=O)CC1 |  | > 100 µM |  | > 100 µM |  | > 100 µM |  |  |  | > 100 µM |  | > 100 µM |  | > 100 µM |  | > 100 µM |
